The test system of test [1] is progesterone-induced endometrial proliferation. As to the kind of experiment: AntiMcGinty test. The conditions noted are these: for ANTIPROGESTATIONAL Anti-McGinty: relative potency, CDB-2914 = 100 (assigned), intraluminal, rabbit. The format is in vivo, rabbit. The procedure:
AntiMcGinty Test (McGinty, et al., Endocrinology, 24:829-832 (1939))
Immature female rabbits of the New Zealand White breed (approx. 1 kg body weight) were maintained under standard laboratory conditions and received a subcutaneous injection of 5 μg estradiol in 10% ethanol/sesame oil daily for 6 consecutive days. Twenty-four hours after the last injection of estradiol (day 7) animals underwent sterile abdominal surgery to ligate a 3-4 cm segment of both uterine horns. The experimental compound in appropriate solvent (usually 10% ethanol/sesame oil) was injected intraluminally into the ligated segment of one uterine horn and the vehicle alone into the ligated segment of the contralateral horn. Injection volume was limited to 0.1 ml, and care was taken to prevent leakage. A stimulating dose of progesterone (0.8 mg/day) was administered subcutaneously to each rabbit daily for the next three days (days 7, 8 and 9) for the purpose of inducing endometrial proliferation. All animals were sacrificed on day 10 when a segment central to the ligatures was removed and fixed in 10% neutral buffered formalin and submitted for histological processing. Five micron sections stained with hematoxylin and eosin (H&E) were evaluated microscopically for the degree of endometrial glandular proliferation according to the method of McPhail (McPhail, J. Physiol., 83:145 (1934). The percent inhibition of endometrial proliferation for each rabbit was calculated and the mean of the group of five animals recorded.

In test [2] the target is T1, progesterone receptor (estrogen-primed rabbit uterus) (Oryctolagus cuniculus, UniProt P06186).
T1 construct: preparation of cytosols for the progesterone and glucocorticoid receptor assays; from tissue; host or cells: uterus of estradiol-primed immature female New Zealand White rabbits (cytosol)
T1 sequence (P06186 1-930): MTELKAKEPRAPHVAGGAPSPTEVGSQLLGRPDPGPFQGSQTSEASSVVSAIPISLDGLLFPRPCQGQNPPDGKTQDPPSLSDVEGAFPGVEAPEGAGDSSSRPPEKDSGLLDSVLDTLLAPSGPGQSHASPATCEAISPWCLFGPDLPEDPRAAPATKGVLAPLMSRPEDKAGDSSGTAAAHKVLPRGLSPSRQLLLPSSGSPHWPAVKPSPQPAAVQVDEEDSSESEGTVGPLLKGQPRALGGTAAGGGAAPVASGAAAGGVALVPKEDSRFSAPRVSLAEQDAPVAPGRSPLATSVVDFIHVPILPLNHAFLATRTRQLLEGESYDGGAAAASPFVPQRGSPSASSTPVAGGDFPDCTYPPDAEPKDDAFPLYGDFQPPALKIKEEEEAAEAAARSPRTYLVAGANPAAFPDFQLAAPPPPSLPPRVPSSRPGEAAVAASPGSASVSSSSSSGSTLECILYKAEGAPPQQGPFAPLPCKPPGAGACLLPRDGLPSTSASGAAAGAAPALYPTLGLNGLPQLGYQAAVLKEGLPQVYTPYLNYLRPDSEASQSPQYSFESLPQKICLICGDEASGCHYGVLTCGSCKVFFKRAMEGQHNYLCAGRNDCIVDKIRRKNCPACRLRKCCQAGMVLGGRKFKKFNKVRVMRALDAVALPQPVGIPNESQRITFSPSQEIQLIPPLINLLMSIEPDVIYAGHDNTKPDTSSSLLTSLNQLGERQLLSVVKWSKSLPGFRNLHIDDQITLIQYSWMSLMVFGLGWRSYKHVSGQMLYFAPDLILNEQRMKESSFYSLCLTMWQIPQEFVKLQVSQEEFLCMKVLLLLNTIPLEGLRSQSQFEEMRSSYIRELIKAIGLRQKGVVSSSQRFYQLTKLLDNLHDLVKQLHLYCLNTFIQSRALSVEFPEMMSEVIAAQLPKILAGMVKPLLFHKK
The experiment in a line: Relative binding affinity, progesterone receptor. The following applies: for RELATIVE BINDING AFFINITY Progesterone / BINDING AFFINITY Progester: estrogen-primed rabbit uterus, progesterone = 100%; for binding affinities compared with the standard, compound 69B: progesterone receptor implied (rabbit or human isoform A not specified); for BINDING AFFINITY Progester: Table 2.

The target in test [3] is T2, glucocorticoid receptor (estrogen-primed rabbit thymus) (Oryctolagus cuniculus, UniProt P59667).
T2 construct: preparation of cytosols for the progesterone and glucocorticoid receptor assays; from tissue; host or cells: thymus of estradiol-primed immature female New Zealand White rabbits (cytosol)
T2 sequence (P59667 1-772): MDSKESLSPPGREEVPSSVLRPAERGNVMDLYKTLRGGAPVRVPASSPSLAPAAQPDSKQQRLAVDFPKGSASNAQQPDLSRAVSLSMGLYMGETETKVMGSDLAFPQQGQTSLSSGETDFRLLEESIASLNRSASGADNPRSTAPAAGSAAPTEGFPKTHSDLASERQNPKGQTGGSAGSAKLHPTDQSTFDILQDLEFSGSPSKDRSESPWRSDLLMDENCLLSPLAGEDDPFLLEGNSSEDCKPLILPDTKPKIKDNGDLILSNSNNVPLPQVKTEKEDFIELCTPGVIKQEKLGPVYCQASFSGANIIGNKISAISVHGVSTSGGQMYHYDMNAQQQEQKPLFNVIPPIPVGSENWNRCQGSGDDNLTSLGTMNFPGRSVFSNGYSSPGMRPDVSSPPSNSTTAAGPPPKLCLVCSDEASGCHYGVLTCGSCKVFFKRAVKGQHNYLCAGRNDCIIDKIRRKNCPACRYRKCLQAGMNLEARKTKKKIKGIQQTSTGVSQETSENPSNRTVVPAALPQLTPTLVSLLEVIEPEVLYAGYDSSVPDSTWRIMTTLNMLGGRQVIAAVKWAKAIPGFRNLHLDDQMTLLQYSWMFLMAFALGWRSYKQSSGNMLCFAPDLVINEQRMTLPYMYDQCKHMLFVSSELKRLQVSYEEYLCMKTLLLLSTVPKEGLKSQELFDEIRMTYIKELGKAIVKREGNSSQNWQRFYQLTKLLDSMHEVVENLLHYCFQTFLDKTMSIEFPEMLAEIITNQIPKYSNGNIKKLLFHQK
As to the kind of experiment: Relative binding affinity, glucocorticoid receptor. The following applies: estrogen-primed rabbit thymus, dexamethasone = 100%; for BINDING AFFINITY Glucocortic: Table 2.

Test [4] relates to progesterone-induced endometrial proliferation. The experiment in a line: AntiClauberg test. The format is in vivo, rabbit. The following applies: Table 2, CDB-2914 = 100 (assigned). A digest of the protocol:
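Immature NZW rabbits were estradiol-primed s.c. for 6 days, then given progesterone 0.8 mg/day s.c. plus compound orally or s.c. for 5 days. Uteri were sectioned and H&E-scored for endometrial glandular proliferation (McPhail). Percent inhibition was calculated per dose versus progesterone-only animals.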

For test [5], the system named is pregnancy (number and condition of conceptuses). The experiment in a line: Postcoital test. The format is in vivo, rat. The following applies: rat, days 4-6 subcu.

Marks after values point to notes of the source that are not given here. Bounds are passed on as bounds.

As to `CC(=O)O[C@]1(C(=O)CBr)CCC2C3CCC4=CC(=O)CCC4=C3C(c3ccc(N(C)C)cc3)C[C@@]21C` (stereo partly drawn) [Compound 14B, 17α-acetoxy-21-bromo-11β-[4-(N,N-dimethylamino)phenyl]-19-norpregna-4,9-diene-3,20-dione], the “antiprogestational activity compared with the lead compound / standard, in words” value in test [1] (antiMcGinty (and antiClauberg), versus CDB-2914 (69B)) is “did not show significant differences”. For the same compound, the “ANTIPROGESTATIONAL Anti-McGinty” value in test [1] came to 71. Also, in test [2], the “RELATIVE BINDING AFFINITY Progesterone” value stood at 130% and the “binding affinities compared with the standard, compound 69B” value is given as “binding affinities greater than that observed for the standard”. Besides, the “binding affinity for the progesterone receptor, in words” value in test [2] (rabbit uterine, versus CDB-2914 (69B) where stated) was “did not show significant differences”. Besides, the “RELATIVE BINDING AFFINITY Glucocorticoid” value in test [3] is 175%.

For `CCC(=O)OC1(C(C)=O)CCC2C3CCC4=CC(=O)CCC4=C3C(c3ccc(N(C)C)cc3)CC21C` (stereo not drawn) [Compound 69C, 17α-Propionoxy-11β-[4-(N,N-dimethylamino)phenyl]-19-norpregna-4,9-diene-3,20-dione], in test [4] (oral), the “BIOLOGICAL ACTIVITY antiClauberg” value was “˜10”. Also, the “Postcoital MED100 (*)” value in test [5] is listed as 2* mg/day. For the same compound, the “BINDING AFFINITY Progester” value in test [2] turned out to be 91%. Moreover, the “BINDING AFFINITY Glucocortic” value in test [3] amounted to 49%.

Take `CCCCCCC(=O)O[C@]1(C(C)=O)CC[C@H]2[C@@H]3CCC4=CC(=O)CCC4=C3[C@@H](c3ccc(N(C)C)cc3)C[C@@]21C` [Compound 69D, 17α-Heptanoyloxy-11β-[4-(N,N-dimethylamino)phenyl]-19-norpregna-4,9-diene-3,20-dione]: in test [4] (subcutaneous), the “BIOLOGICAL ACTIVITY antiClauberg (subcu)” value was “weak”. Besides, the “Postcoital MED100 (*)” value in test [5] is recorded as “inac-”. Besides, the “BINDING AFFINITY Progester” value in test [2] is recorded as 40%. In addition, in test [3], the “BINDING AFFINITY Glucocortic” value was found to be 89%.

Consider `CC(=O)SCC(=O)C1(O)CCC2C3CCC4=CC(=O)CCC4=C3C(c3ccc(N(C)C)cc3)CC21C` (stereo not drawn) [Compound 16], for which the “ANTIPROGESTATIONAL Anti-McGinty” value in test [1] is given as more than 2. For the same compound, in test [2], the “RELATIVE BINDING AFFINITY Progesterone” value stood at 6%. The “RELATIVE BINDING AFFINITY Glucocorticoid” value in test [3] came to 77%.

Consider `CCC(=O)[C@@]1(OC(C)=O)CCC2C3CCC4=CC(=O)CCC4=C3C(c3ccc(N(C)C)cc3)C[C@@]21C` (stereo partly drawn) [Compound 28, 17α-acetoxy-21-methyl-11β-[4-(N,N-dimethylamino)phenyl]-19-norpregna-4,9-diene-3,20-dione], for which, in test [1], the “ANTIPROGESTATIONAL Anti-McGinty” value was 32. Also, in test [2], the “RELATIVE BINDING AFFINITY Progesterone” value came out at 129% and the “binding affinities compared with the standard, compound 69B” value is given as “binding affinities greater than that observed for the standard”. Besides, the “RELATIVE BINDING AFFINITY Glucocorticoid” value in test [3] is 126%.

For the compound `CC(=O)O[C@]1(C(=O)CSC(C)=O)CC[C@H]2[C@@H]3CCC4=CC(=O)CCC4=C3[C@@H](c3ccc(N(C)C)cc3)C[C@@]21C` [Compound 17, 17α-acetoxy-21-acetylthio-11β-[4-(N,N-dimethylamino)phenyl]-19-norpregna-4,9-diene-3,20-dione], in test [1], the “ANTIPROGESTATIONAL Anti-McGinty” value is on record as 65. The “RELATIVE BINDING AFFINITY Progesterone” value in test [2] is 37%. Further, in test [3], the “RELATIVE BINDING AFFINITY Glucocorticoid” value was found to be 54%.

Values taken from patent US6900193B1, “Structural modification of 19-norprogesterone I: 17-α-substituted-11-β-substituted-4-aryl and 21-substituted 19-norpregnadienedione as new antiprogestational agents” (The United States of America as represented by the …, priority 1996, dated 2005).
